What was measured:
[1] = molecular target: T1, Retinoic acid receptor RXR-alpha (Homo sapiens) (UniProt P19793); test: Activity at RXRalpha by GAL4DNA cotransfection assay relative to 5-((3-(1-ethyl-4,4,6-trimethyl-2-oxo-1,2,3,4-tetrahydroquinolin-7-yl)-4-(trifluoromethoxy)phenyl)methylene)thiazolidine-2,4-dione; design: concentration or dose not given beside the values
T1 sequence (whole entry): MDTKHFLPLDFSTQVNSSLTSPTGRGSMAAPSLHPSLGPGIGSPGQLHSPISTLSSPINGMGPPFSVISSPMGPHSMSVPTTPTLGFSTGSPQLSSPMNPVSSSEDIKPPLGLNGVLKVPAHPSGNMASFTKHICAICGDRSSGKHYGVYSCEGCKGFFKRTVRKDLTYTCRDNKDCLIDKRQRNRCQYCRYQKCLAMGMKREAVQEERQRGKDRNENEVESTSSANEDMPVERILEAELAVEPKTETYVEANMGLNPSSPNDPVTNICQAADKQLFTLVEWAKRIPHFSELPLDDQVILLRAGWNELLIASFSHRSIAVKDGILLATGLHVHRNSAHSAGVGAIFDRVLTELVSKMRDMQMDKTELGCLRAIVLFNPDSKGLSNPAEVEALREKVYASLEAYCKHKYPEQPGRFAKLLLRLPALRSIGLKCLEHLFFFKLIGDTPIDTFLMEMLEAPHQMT

[2] = molecular target: T2, Retinoic acid receptor RXR-alpha (Homo sapiens, UniProt P19793); test: Activity at RXRalpha by GAL4DNA cotransfection assay
T2 sequence (P19793 whole entry): T1 sequence (whole entry)

[3] = Activity at RXR-LXR heterodimer assessed as induction of ABCA1 mRNA; design: species or system Homo sapiens
[4] = Activity at RXR-PPARgamma in human preadipocytes assessed as induction of adipocytes fatty acid binding protein; assay type: cell-based
Homo sapiens = species on record: Homo sapiens; test: Activation of RXR-LXR heterodimer assessed as induction of ABCA1 mRNA relative to 5-((3-(1-ethyl-4,4,6-trimethyl-2-oxo-1,2,3,4-tetrahydroquinolin-7-yl)-4-(trifluoromethoxy)phenyl)methylene)thiazolidine-2,4-dione; design: concentration or dose not given beside the values
Rattus norvegicus [5] = test: Effect on serum triglyceride level in high cholesterol diet fed Sprague-Dawley rat at 10 mg/kg, po after 8 days relative to control; assay type: functional
Rattus norvegicus [6] = test: Effect on serum LDL-C level in high cholesterol diet fed Sprague-Dawley rat at 10 mg/kg, po after 8 days relative to control; assay type: functional
Rattus norvegicus [7] = test: Effect on serum cholesterol level in high cholesterol diet fed Sprague-Dawley rat at 10 mg/kg, po after 8 days relative to control; assay type: functional
Rattus norvegicus [8] = test: Effect on serum HDL-C level in high cholesterol diet fed Sprague-Dawley rat at 10 mg/kg, po after 8 days relative to control; assay type: functional

| SMILES | Activity [1] | EC50 [2] | EC50 [3] | also measured |
| --- | --- | --- | --- | --- |
| CCN1C(=O)CC(C)(C)c2cc(C)c(-c3cc(C4CC4C(=O)O)ccc3OCC(F)(F)F)cc21 (racemic) | 87% | 116 nM | > 3000 nM | – |
| CCN1C(=O)CC(C)(C)c2cc(C)c(-c3cc(C#CC(=O)O)ccc3OC(F)(F)F)cc21 | – | – | > 3000 nM | – |
| CCN1C(=O)CC(C)(C)c2cc(C)c(-c3cc([C@@H]4C[C@H]4C(=O)O)ccc3OC(F)(F)F)cc21 | 85% | 2.3 nM | > 3000 nM | EC50 [4]: 581 nM |
| Cc1cc2c(cc1-c1cc(C3CC3C(=O)O)ccc1OC(F)(F)F)N(C(C)C)C(=O)CC2(C)C (racemic) | 85% | 5 nM | > 3000 nM | – |
| CCN1C(=O)CC(C)(C)c2cc(C)c(-c3cc(CCC(=O)O)ccc3OCC(F)(F)F)cc21 | 90% | 70.2 nM | > 3000 nM | EC50 [4]: > 3000 nM |
| Cc1cc2c(cc1-c1cc(CCC(=O)O)ccc1OC(F)(F)F)N(CC(F)(F)F)C(=O)CC2(C)C | 100% | 1.4 nM | > 3000 nM | – |
| CCN1C(=O)CC(C)(C)c2cc(C)c(-c3cc(CC(C)C(=O)O)ccc3OC(F)(F)F)cc21 (centres undefined) | 85% | 760 nM | > 3000 nM | – |

Second part, led by results:

| Activity [1] | EC50 [2] | EC50 [3] | SMILES | also measured |
| --- | --- | --- | --- | --- |
| 92% | 361 nM | > 3000 nM | CCN1C(=O)CC(C)(C)c2cc(C)c(-c3cc([C@H]4C[C@@H]4C(=O)O)ccc3OC(F)(F)F)cc21 | – |
| – | – | > 3000 nM | CCN1C(=O)CC(C)(C)c2cc(C)c(-c3cc(OC(C)(C)C(=O)O)ccc3OC(F)(F)F)cc21 | – |
| 50% | 208 nM | 1520 nM | COc1ccc(C2CC2C(=O)O)cc1-c1cc2c(cc1C)C(C)(C)CC(=O)N2C(C)C (racemic) | – |
| 80% | – | 1 nM | Cc1cc2c(cc1-c1cc(CCC(=O)O)ccc1OC(F)(F)F)N(C(C)C)C(=O)CC2(C)C | Activity (Homo sapiens): 59% |
| – | – | 180 nM | CCN1C(=O)CC(C)(C)c2cc(C)c(-c3cc(/C=C4\SC(=O)NC4=O)ccc3OC(F)(F)F)cc21 | Activity (Rattus norvegicus [5]): 286 mg/dL; EC50 [4]: 139 nM; Activity (Rattus norvegicus [6]): 41 mg/dL; Activity (Rattus norvegicus [7]): 267 mg/dL; Activity (Rattus norvegicus [8]): 47 mg/dL |
| 88% | 19.2 nM | 17.4 nM | CCN1C(=O)CC(C)(C)c2cc(C)c(-c3cc(C4CC4C(=O)O)ccc3OC(F)(F)F)cc21 (racemic) | – |
| 79% | 36.5 nM | 369 nM | Cc1cc2c(cc1-c1cc(CCC(=O)O)ccc1OCC(F)(F)F)N(C(C)C)C(=O)CC2(C)C | Activity (Homo sapiens): 45% |
